Molecular target: Integrin alpha-IIb/beta-3 (Homo sapiens, UniProt P08514+P05106)
Experiment: ChEBML_90196
From the text: In vitro inhibition of ADP-mediated human gel filtered platelet aggregation.

Integrin alpha-IIb/beta-3, sequence (P05106 27-788 limits assumed): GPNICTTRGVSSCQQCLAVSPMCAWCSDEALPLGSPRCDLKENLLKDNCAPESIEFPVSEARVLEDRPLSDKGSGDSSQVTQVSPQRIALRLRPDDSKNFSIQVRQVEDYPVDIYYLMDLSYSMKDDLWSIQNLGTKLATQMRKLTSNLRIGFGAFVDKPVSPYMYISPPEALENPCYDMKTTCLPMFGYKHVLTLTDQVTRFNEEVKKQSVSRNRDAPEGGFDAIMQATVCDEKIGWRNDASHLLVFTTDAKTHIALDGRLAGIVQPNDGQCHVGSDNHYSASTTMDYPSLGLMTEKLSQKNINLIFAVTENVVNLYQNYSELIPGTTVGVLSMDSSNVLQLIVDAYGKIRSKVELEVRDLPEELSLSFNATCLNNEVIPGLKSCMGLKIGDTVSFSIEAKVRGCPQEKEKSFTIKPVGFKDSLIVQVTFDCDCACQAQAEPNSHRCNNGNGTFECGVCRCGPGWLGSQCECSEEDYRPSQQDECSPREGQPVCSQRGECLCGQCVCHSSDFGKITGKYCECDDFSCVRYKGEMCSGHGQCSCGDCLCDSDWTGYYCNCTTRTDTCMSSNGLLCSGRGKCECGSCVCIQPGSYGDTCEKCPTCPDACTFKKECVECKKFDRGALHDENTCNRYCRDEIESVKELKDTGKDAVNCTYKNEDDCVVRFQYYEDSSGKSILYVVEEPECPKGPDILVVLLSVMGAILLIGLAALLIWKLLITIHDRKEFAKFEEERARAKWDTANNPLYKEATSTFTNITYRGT
Integrin alpha-IIb/beta-3, sequence (P08514 32-887 limits assumed): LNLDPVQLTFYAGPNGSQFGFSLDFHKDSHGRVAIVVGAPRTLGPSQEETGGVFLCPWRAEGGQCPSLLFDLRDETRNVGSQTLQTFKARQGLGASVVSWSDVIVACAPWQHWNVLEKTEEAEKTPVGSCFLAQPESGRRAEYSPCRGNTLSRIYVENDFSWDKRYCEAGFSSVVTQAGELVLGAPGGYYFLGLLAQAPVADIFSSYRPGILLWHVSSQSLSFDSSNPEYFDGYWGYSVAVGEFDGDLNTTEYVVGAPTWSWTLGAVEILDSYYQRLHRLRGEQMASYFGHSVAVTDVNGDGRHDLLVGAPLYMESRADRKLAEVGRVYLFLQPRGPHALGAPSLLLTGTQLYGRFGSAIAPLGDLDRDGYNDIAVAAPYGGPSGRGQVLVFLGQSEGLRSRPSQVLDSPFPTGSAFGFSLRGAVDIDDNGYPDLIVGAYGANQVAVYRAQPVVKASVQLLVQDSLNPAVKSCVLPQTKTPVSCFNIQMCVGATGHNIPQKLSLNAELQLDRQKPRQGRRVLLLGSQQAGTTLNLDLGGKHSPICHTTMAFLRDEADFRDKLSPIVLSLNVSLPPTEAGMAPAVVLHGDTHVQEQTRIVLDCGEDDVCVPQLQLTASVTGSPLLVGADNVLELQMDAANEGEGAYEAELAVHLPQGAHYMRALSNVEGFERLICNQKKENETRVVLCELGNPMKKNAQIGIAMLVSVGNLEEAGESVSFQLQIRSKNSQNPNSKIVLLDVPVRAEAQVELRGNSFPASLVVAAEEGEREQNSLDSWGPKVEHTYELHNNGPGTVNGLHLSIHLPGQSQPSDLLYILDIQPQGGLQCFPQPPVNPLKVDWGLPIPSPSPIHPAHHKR
Integrin alpha-IIb/beta-3, sequence (P08514 891-1039 limits assumed): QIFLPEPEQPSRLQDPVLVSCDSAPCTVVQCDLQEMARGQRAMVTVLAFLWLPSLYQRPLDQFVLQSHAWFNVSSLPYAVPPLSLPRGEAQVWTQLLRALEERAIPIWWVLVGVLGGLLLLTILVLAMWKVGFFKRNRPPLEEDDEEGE

Compound	IC50 [µM]
CC(C)(C)NCC(O)COc1ccc(C[C@H](NC(=O)OCc2ccccc2)C(=O)O)cc1 (some centres not stated)	27
NCCCCCCCCOc1ccc(C[C@H](NC(=O)OCc2ccccc2)C(=O)O)cc1 [3-[4-(8-Amino-octyloxy)-phenyl]-2-benzyloxycarbonylamino-propionic acid]	40
O=C(N[C@@H](Cc1ccc(OCCCc2ccccc2)cc1)C(=O)O)OCc1ccccc1	> 1000
CC(C)(C)NCCCOc1ccc(C[C@H](NC(=O)OCc2ccccc2)C(=O)O)cc1 [(S)-2-Benzyloxycarbonylamino-3-[4-(3-tert-butylamino-propoxy)-phenyl]-propionic acid]	22
CCCCCC(=O)N[C@@H](Cc1ccc(OCCCCCCN)cc1)C(=O)O	3.8
NCCCCCCOc1ccc(C[C@H](NS(=O)(=O)Cc2ccccc2)C(=O)O)cc1	2
NCCCCCCOc1ccc(CCC(=O)O)cc1	> 100

— BindingDB's records for doi:10.1021/jm00102a020 (Merck Research Laboratories, 1993)
